Laboratory results taken from US10159667B2, “Composition containing a DPP-IV inhibitor for preventing or treating renal diseases” (DONG-A ST CO., LTD, priority 2013, dated 2018).
Marks after values point to notes of the source that are not given here.

How the values were obtained:
[1] = system: db/db mice; experiment: Renal lipid metabolism: mRNA expression of ABCA1 and HMG-CoA reductase; type: in vivo; conditions: 12th week, FIGS. 11 and 12
[2] = system: non-diabetic renal disease mouse model; experiment: Microalbuminuria and nephrin excretion in adriamycin (ADX) non-diabetic renal disease mouse model; type: in vivo, mice; conditions: for urinary excretion of albumin / urinary excretion of nephrin: ADX 13 mg/kg i.v. mice, vs control
Procedure: Non-diabetic renal diseases occurs via induction of glomerular podocyte damage when injecting adriamycin (hereinafter, ADX) that is an anti-cancer agent. Thirty mice at the age of 6 weeks were divided into 3 groups (n=10/group) after single intravenous injection of 13 mg/kg of ADX. For the first group, the administration of DA1229 was initiated immediately and maintained while renal disease incurred and developed. For the second group, administration of DA1229 was performed 3 weeks after single ADX injection, for the purpose of administering DA1229 after renal disease was progressed to some degree. The third group was set as a control group without any additional action. DA1229 was administered as a mixture with diet at 0.3% (W/W, 300 mg/kg/day) to the first and second groups. Only feed was provided to the control group. Microalbuminuria and nephrin excretion of each group were measured at 5th week of administration.

[3] = system: db/db mice; experiment: Renal nephrin expression by immunostaining; type: in vivo; conditions: FIG. 13
Description: Nephrin is a protein expressed on cell membrane of podocyte which forms glomerular filtration membrane. Nephrin forms a filtration barrier by binding to adjacent podocyte. When proteinuria incurs due to glomerular damage, nephrin barrier is damaged because nephrin expression in podocyte decreases, and accordingly, urinary excretion of nephrin increases. Therefore, urinary excretion of nephrin and nephrin expression in kidney in the non-diabetic control group, the diabetic group and the DA1229 administration group were observed. […] In addition, kidneys were isolated from each group; renal tissues were separated, immunostained with nephrin-specific antibody, and observed by using a microscope. Result is shown in right-hand side of FIG. 13. It is shown that observed nephrin was few in the diabetic group compared to the non-diabetic control group, but much in the DA1229 administration group.

[4] = system: podocytes; experiment: Nephrin expression in podocytes under glucose and angiotensin II stimuli (western blot); type: cell-based; conditions: 10 nM, 72 hours, 30 mM glucose and 100 nM angiotensin II, FIG. 18
Procedure: Effects of DA1229, linagliptin, saxagliptin and sitagliptin on nephrin expression under stimuli of glucose and angiotensin II that are same to the stimulation occurring in diabetes were observed below.
Podocytes were cultured for 72 hours in media containing 30 mM of glucose, 100 nM of angiotensin II; and any one of 10 nM of DA1229, 10 nM of linagliptin, 1 nM of saxagliptin and 10 nM of sitagliptin. After that, the media were removed; cells were lysed; and changes of intracellularly expressed nephrin were measured through western blot by using polyclonal antibody (Santa Crúz, SC-19000.)

[5] = system: db/db mice; experiment: Microalbuminuria: 24 h urinary albumin excretion by ELISA; type: in vivo; conditions: FIG. 6
Procedure: When diabetes is progressed, phenomena of renal glomeruli destruction and protein (albumin) excretion incur, and microalbuminuria is directed to a case when the amount of the excretion is small. Microalbuminuria is one of the initial indices of renal diseases, and the gomeruli destruction becomes more severe as diabetes progresses. Accordingly the amount of protein excretion will increase. […] Microalbuminuria was observed by measuring the amount of urinary excretion of albumin during 24 hours in the non-diabetic control group, the diabetic group and the DA1229 administration group at week 0, 4, 8 and 12 of administration. The amount of albumin excretion was measured by using a ELISA reader (Micro-Quant, Bio-Tek Instruments, Colmar, France) after using the ELISA kit (Shibayagi, Shibukawa, Japan).

[6] = system: db/db mice; experiment: Renal fibrosis: mRNA expression of TGF β1, Type IV collagen and PAI-1 by real-time PCR; conditions: 12th week, relative to β-actin, FIG. 10
[7] = system: db/db mice; experiment: Renal fibrosis: immunohistochemistry of TGF β1, Type IV collagen and PAI-1; type: in vivo; conditions: 12th week
Description: Renal glomerular tissues were collected and sectioned by a microtome and embedded in paraffin after alcohol dehydration. The sections were stained via immunohistochemistry; each of deposited TGF β1, Type IV collagen and PAI-1 in kidney was observed by using a microscope (STM6-LM Olympus NDT Inc, USA) (see FIG. 8); and degree and range of the staining were scored by a pathologist (see FIG. 9).

[8] = system: db/db mice; experiment: Blood lipid concentration in db/db mice; type: in vivo; conditions: 12th week of administration, FIG. 4
Procedure: In diabetic patients, blood lipids are tend to be increased and lipids are tend to be deposited in liver (i.e. hepatic steatosis) due to failure of lipid metabolism. Following experiment has been conducted to confirm whether DA1229 improves lipid metabolism. […] Concentrations of lipids, that are total cholesterol, triglyceride, HDL-cholesterol and LDL-cholesterol, of plasma of the non-diabetic control group, the diabetic group and the DA1229 administration group were measured at 12th week of administration. Concentration of total cholesterol and triglyceride were measured by using a ELISA reader (Micro-Quant, Bio-Tek Instruments, Colmar, France) after using the GPO-Trinder kit (Sigma, St. Louis, Mo., USA); and HDL-cholesterol and LDL-cholesterol were measured by using a TBA-200FR NEO (Toshiba, Japan).

[9] = system: db/db mice; experiment: Histological evaluation of renal mesangial expansion (PAS staining); type: in vivo; conditions: 12th week of administration, FIG. 7
Description: Mesangial expansion incurs in kidney when renal destruction progresses in renal diseases. Therefore, glomerular mesangial expansion in the non-diabetic control group, the diabetic group and the DA1229 administration group was observed. […] Renal glomerular tissues were collected and sectioned by a microtome and embedded in paraffin after alcohol dehydration. The sections were stained by using PAS (periodic acid-Schiff); observed by using a microscope (STM6-LM Olympus NDT Inc, USA) (see FIG. 7B); and scored by a pathologist (see FIG. 7A.)

[10] = system: db/db mice; experiment: Urinary nephrin excretion by EIA, normalized by creatinine; type: in vivo; conditions: FIG. 13
Description: Nephrin is a protein expressed on cell membrane of podocyte which forms glomerular filtration membrane. Nephrin forms a filtration barrier by binding to adjacent podocyte. When proteinuria incurs due to glomerular damage, nephrin barrier is damaged because nephrin expression in podocyte decreases, and accordingly, urinary excretion of nephrin increases. Therefore, urinary excretion of nephrin and nephrin expression in kidney in the non-diabetic control group, the diabetic group and the DA1229 administration group were observed. […] It was then normalized by creatinine excretion, which is proportional to a volume of urination (measured by the modified Jaffe method) and shown in the left-hand side graph in FIG. 13.

[11] = system: db/db mice; experiment: Hepatic steatosis: H&E-stained liver sections; type: in vivo; conditions: 12th week of administration, FIG. 5
Description: Liver tissues collected from the non-diabetic control group, the diabetic group and the DA1229 administration group were sectioned by a microtome and embedded in paraffin after alcohol dehydration at 12th week of administration. These sections were stained by Hematoxylin-eosin, and then lipid deposition was observed by using a microscope (STM6-LM Olympus NDT Inc, USA) (see FIG. 5).

[12] = system: db/db mice; experiment: Plasma creatinine by modified Jaffe method; type: in vivo
[13] = system: db/db mice; experiment: Weight, food intake, water intake, fasting blood glucose, urine output, HbA1c and blood pressure in db/db mice; type: in vivo
Procedure: 6-week old mice were used. db/m mice were set as the non-diabetic control group (7 for each stage, n=28), and divided db/db mice into the diabetic group (7 for each stage, n=28) and DA1229 administration group (n=8). 0.3% (W/W, 300 mg/kg/day) of DA1229, a DPP-IV inhibitor, was mixed with feed and provided to the DA1229 administration group while only feed was provided to the diabetic group. Weight, food intake, water intake, fasting blood glucose, urine output, hemoglobin A1c value (HbA1c) and blood pressure (i.e. systolic blood pressure, SBP) of the non-diabetic control group (db/m control group) and the diabetic group (db/db) were measured at week 0, 4, 8 and 12 of administration; and that of the DA1229 administration group were measured at week 12. HbA1c was measured by using the DCA 2000+ (Bayer Healthcare, Wuppertal, Germany) Analyzer.

[14] = DA1229 0.3% W/W in feed (300 mg/kg/day), wk 12, mean ± SEM
[15] = DA1229 administered for 12 weeks

CC(C)(C)OC[C@@H]1C(=O)NCCN1C(=O)C[C@H](N)Cc1cc(F)c(F)cc1F [DA1229, (R)-4-{(R)-3-amino-4-(2,4,5-trifluorophenyl)butanoyl}-3-(t-butoxymethyl)piperazin-2-one]
renal mRNA expression of ABCA1 [1]: markedly increased
renal mRNA expression of HMG-CoA reductase [1]: decreased to the level of the non-diabetic control group
urinary excretion of albumin ([2]; first group: DA1229 300 mg/kg/day started with induction of renal disease, FIG. 14A): significantly decreased
urinary excretion of nephrin ([2]; first group: DA1229 300 mg/kg/day started with induction of renal disease, FIG. 14B): significantly decreased
urinary excretion of albumin ([2]; second group: DA1229 300 mg/kg/day started 3 weeks after ADX, FIG. 15A): significantly decreased
urinary excretion of nephrin ([2]; second group: DA1229 300 mg/kg/day started 3 weeks after ADX, FIG. 15B): significantly decreased
effect of decreasing albumin excretion over time ([2]; ADX mice, second group, FIG. 15): became more significant as time passed
nephrin observed in renal tissue (immunostaining) [3]: much
nephrin expression in podocytes [4]: maintained equally to the control group
microalbuminuria until 4th week [5]: not observed
amount of urinary excretion of albumin after 4th week ([5]; vs diabetic group): much smaller than that of the diabetic group
renal mRNA expression of PAI-1 [6]: markedly decreased
renal mRNA expression of TGF β1 [6]: markedly decreased
renal mRNA expression of Type IV collagen [6]: markedly decreased
TGF β1 deposited in kidney (immunohistochemistry) ([7]; FIGS. 8A and 9): markedly decreased
Type IV collagen deposited in kidney (immunohistochemistry) ([7]; FIGS. 8B and 9): decreased to the level of the non-diabetic control group
PAI-1 deposited in kidney (immunohistochemistry) ([7]; FIGS. 8C and 9): decreased to the level of the non-diabetic control group
plasma LDL-cholesterol concentration [8]: restored to the level of the non-diabetic control group
plasma total cholesterol concentration [8]: restored to the level of the non-diabetic control group
plasma triglyceride concentration [8]: restored to the level of the non-diabetic control group
glomerular mesangial expansion [9]: improved to a level close to the non-diabetic control group
content of nephrin in urine [10]: markedly decreased
lipid deposition of liver tissues [11]: restored to the level of the non-diabetic control group
Plasma Creatinine ([12]; DA1229 300 mg/kg/day in feed, wk 12, ± SEM): 29.0 ± 2.0 µmol/L
plasma creatinine compared to the diabetic group ([12]; wk 12): markedly decreased
Daily Water Intake [13, 14]: 8.6 ± 0.4**^,# g
Fasting Blood Glucose [13, 14]: 466 ± 66 mg/dL
HbAlc [13, 14]: 8.58 ± 0.79 %
Urine Output [13, 14]: 1.07 ± 0.29 mL/day
fasting blood glucose compared to the diabetic group [13, 15]: markedly decreased
urine output compared to the diabetic group [13, 15]: no significant differences
water intake compared to the diabetic group [13, 15]: markedly decreased

N[C@@H](CC(=O)N1CCn2c(nnc2C(F)(F)F)C1)Cc1cc(F)c(F)cc1F [sitagliptin, reference compound]
nephrin expression in podocytes [4]: almost no difference compared to the group treated only with glucose and angiotensin II
